What all share (experiment): NCI tumour cell line growth inhibition, 48 h
In experiment [1] the test system is UACC-62 melanoma.
Experiment [2] relates to SK-MEL-5 melanoma.
Experiment [3] deals with SF-295 CNS.
Experiment [4] deals with MOLT-4 leukemia.
For experiment [5], the system named is OVCAR-3 ovarian.
Experiment [6] has as its system CAKI-1 renal.
The subject of experiment [7] is M14 melanoma.
Experiment [8] deals with LOX IMVI melanoma.
In experiment [9] the test system is EKVX NSCLC.

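48-hour exposure; five concentrations; linearly interpolated endpoints. GI50 marks 50% less growth. TGI: concentration producing complete growth inhibition.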

On to `CSc1nc(NC2OC(COC(C)=O)C(OC(C)=O)C(OC(C)=O)C2OC(C)=O)c2c(n1)OCC2=O` (stereo not drawn), for which the TGI in experiment [1], in experiment [2], in experiment [3], in [4], in experiment [5] and in [6] was over 100 µM in each case. Moreover, the TGI in [7] and in [8] was over 100 µM each time.
Regarding `COC(=O)C(C(=O)OC)C1CCCC(=O)C1` (stereo not drawn), the TGI in experiment [1], in experiment [2], in experiment [9], in experiment [3], in experiment [4] and in [5] was over 100 µM in each case. Moreover, the TGI in experiment [7] and in experiment [8] was over 100 µM in each case.
Turning to `O=C(O)CCC(N=Cc1nc(-c2ccccc2)oc1O)C(=O)O` (stereo not drawn), the TGI in [1], in experiment [2], in experiment [9], in experiment [3], in [4] and in experiment [5] was over 100 µM in each case. The TGI in [6] and in experiment [7] was over 100 µM in each case.
Regarding `O=c1ncc(F)cn1C1OC(CO)C(O)C1O` (stereo not drawn), the TGI is over 64.1 µM in [1]; over 100 µM in [9]; over 100 µM in experiment [3]; over 54.3 µM in [4]; over 67.4 µM in experiment [5]; over 100 µM in [6]. For the same compound, the TGI in experiment [7] is over 100 µM; in experiment [8], over 59.8 µM.
Take `CCOC(=O)N1CCC(=O)C(CNC23CC4CC(CC(C4)C2)C3)C1` (stereo not drawn): the TGI in experiment [1] is over 100 µM; in experiment [2], over 100 µM; in experiment [9], over 100 µM; in experiment [3] it was over 100 µM; in experiment [4], 38.9 µM; in experiment [8] it was 41.5 µM.
Consider `CC(C)(C)c1cc(-n2c(-c3ccc(Cl)cc3)nc3cc(C(=O)Nc4ccc(Cl)cc4)ccc32)n[nH]1`, for which the GI50 in experiment [1] was 2.75 µM; in experiment [3], 2.93 µM; in experiment [5], 3.63 µM. Moreover, the TGI in experiment [1] was over 100 µM; in [3] it was over 100 µM; in [5], 23.2 µM.
For `O=C(Nc1ccc(Cl)c(Cl)c1)Nc1c(Oc2ccc(Cl)c(Cl)c2)ccc(Cl)c1S(=O)(=O)O`, the GI50 was 1.97 µM in [1]; 1.33 µM in experiment [2]; 4.1 µM in [4]; 1.09 µM in [7]; 1.96 µM in experiment [8]. Further, the TGI was over 100 µM in experiment [1]; 3.11 µM in experiment [2]; over 100 µM in experiment [4]; over 100 µM in experiment [7]; over 100 µM in experiment [8].
On to `CC(C)([NH-])CO.CC(C)([NH-])CO.[Cl][Cd][Cl]`, for which the GI50 was 7.82 µM in experiment [1]; 4.47 µM in experiment [2]; over 100 µM in experiment [3]; 21.8 µM in experiment [4]; 20.2 µM in experiment [5]; 18.3 µM in [6]. Also, in [7], the GI50 is 18 µM. Besides, the TGI in experiment [1] is 25 µM; in [3], over 100 µM; in experiment [4], 47.3 µM; in [5] it was 38 µM; in experiment [6], 32.3 µM; in experiment [7], 33.4 µM.
For `Oc1ccc2ccccc2c1N=Nc1ccsc1`, the TGI in [1], in experiment [2], in experiment [3], in experiment [4], in experiment [5] and in experiment [6] was over 100 µM each time. Moreover, the TGI in [7] and in experiment [8] was over 100 µM throughout.
With `Cc1ccc(S(=O)(=O)NC2(C=O)CCCC3CCCCC32)cc1` (stereo not drawn), the TGI in experiment [1], in [2], in [4], in experiment [5], in experiment [6] and in [7] was over 100 µM each time.
For the compound `C/C(CC(=O)Nc1ccc(C)c(C)c1)=N\NC(N)=O`, the TGI in experiment [1], in experiment [2], in experiment [9], in experiment [3], in experiment [4] and in experiment [5] was over 100 µM throughout. Besides, the TGI in experiment [7] and in [8] was over 100 µM throughout.
Turning to `O=C(CCN1CCN(c2ccccc2)CC1)N1CCc2c([nH]c3ccccc23)C1c1cccnc1` (stereo not drawn), the TGI in experiment [2] is 28.9 µM; in experiment [9] it was 34.7 µM; in [4], 51.1 µM; in experiment [5], 30.7 µM; in experiment [6] it was 33.5 µM; in [7] it was 31.2 µM. The compound also registered a TGI in experiment [8] of 30.6 µM.
For the compound `O=[P+](O)c1ccsc1`, the TGI in experiment [1], in experiment [2], in experiment [9], in experiment [4], in experiment [6] and in experiment [7] was over 100 µM throughout. In [8], this compound had a TGI of over 100 µM.

Values taken from PubChem BioAssay (NCI).
